Read-outs that look alike come from different tables or passages of the source.
Columns and labels:
Assay type in all cases: cell-based
[1] = test system: Actiinobacillus ureae KCTC 2674; experiment: MIC by broth dilution method; settings: A. ureae, 37° C., 24 hours
[2] = test system: Legionella pneumophila KCCM 41779; settings: L. pneumophila; broth dilution, 37° C., 24 hours
[3] = test system: Propionibacterium granulosum ATCC 25564; experiment: Agar diffusion antibacterial test (anaerobic); settings: P. granulosum
[4] = test system: Legionella pneumophila KCCM 41779; settings: L. pneumophila
[5] = test system: Streptococcus mutans KCTC 3065; experiment: MIC by broth dilution method; settings: S. mutans, 37° C., 24 hours
[6] = test system: Salmonella typhimurium KCTC 2514; experiment: Agar diffusion antibacterial test (aerobic); settings: S. typhimurium
[7] = test system: Vibrio parahaemolyticus KCTC 27; experiment: Agar diffusion antibacterial test (aerobic); settings: V. parahaemolyticus
[8] = test system: Yersinia enterocolitica KCCM 41657; experiment: Agar diffusion antibacterial test (aerobic); settings: Y. enterocolitica
[9] = test system: Propionibacterium granulosum ATCC 25564; experiment: MIC by broth dilution method; settings: P. granulosum, 37° C., 24 hours
[10] = test system: Helicobacter pylori KCTC 5335; experiment: Agar diffusion antibacterial test (anaerobic); settings: H. pylori
[11] = test system: Campylobacter jejuni KCTC 5327; experiment: MIC by broth dilution method; settings: C. jejuni, 37° C., 24 hours
[12] = test system: Escherichia coli KCTC 1039; experiment: Agar diffusion antibacterial test (aerobic); settings: E. coli
[13] = test system: Pseudomonas aeruginosa KCTC 1637; experiment: MIC by broth dilution method; settings: P. aeruginosa, 37° C., 24 hours
[14] = test system: Helicobacter pylori KCTC 5335; experiment: MIC by broth dilution method; settings: H. pylori, 37° C., 24 hours
[15] = test system: 18 species of pathogenic bacteria (aerobic); experiment: Agar diffusion antibacterial test, overall (aerobic); settings: all kinds of test bacteria (aerobic), agar diffusion
[16] = test system: Campylobacter jejuni KCTC 5327; experiment: Agar diffusion antibacterial test (anaerobic); settings: C. jejuni
[17] = test system: Aeromonas salmonicida KCTC 12266; experiment: MIC by broth dilution method; settings: A. salmonicida, 37° C., 24 hours
[18] = test system: Moraxella catarrhalis KCCM 40056; experiment: Agar diffusion antibacterial test (aerobic); settings: M. catarrhalis
[19] = test system: Shigella sonnei KCTC 2518; experiment: MIC by broth dilution method; settings: S. sonnei, 37° C., 24 hours
[20] = test system: Bacteroides fragilis KCTC 3688; experiment: MIC by broth dilution method; settings: B. fragilis, 37° C., 24 hours
[21] = test system: Propionibacterium acne ATCC 6919; experiment: Agar diffusion antibacterial test (anaerobic); settings: P. acne
[22] = test system: Staphylococcus aureus KCTC 1916; experiment: Agar diffusion antibacterial test (aerobic); settings: S. aureus
[23] = test system: Bacillus subtilis KCTC 1021; experiment: Agar diffusion antibacterial test (aerobic); settings: B. subtilis
[24] = test system: Bordetella bronchiseptica KCCM 21998; experiment: MIC by broth dilution method; settings: B. bronchiseptica, 37° C., 24 hours
[25] = test system: Bacillus subtilis KCTC 1021; experiment: MIC by broth dilution method; settings: B. subtilis, 37° C., 24 hours
[26] = test system: Clostridium perfringens KCCM 12098; settings: C. perfringens; broth dilution, 37° C., 24 hours
[27] = test system: Corynebacterium glutamicum KCTC 1445; experiment: Agar diffusion antibacterial test (anaerobic); settings: C. glutamicum
[28] = test system: Shigella sonnei KCTC 2518; experiment: Agar diffusion antibacterial test (aerobic); settings: S. sonnei

Work on `C=C1C(=O)OC[C@H]1O` [S-(−)-tulipalin B, (4S)-4-hydroxy-3-methylene-oxolan-2-one] yielded an MIC [1] of 0.03%, an MIC [2] of 0.03% and an Inhibitory zone diameter ([3]; treatment concentration 0.03%) of 10.5 mm. For the same compound, the Inhibitory zone diameter ([3]; treatment concentration 0.1%) was 13 mm, the Inhibitory zone diameter ([3]; treatment concentration 0.3%) was 15 mm and the Inhibitory zone diameter ([3]; treatment concentration 1.0%) was 16 mm. For the same compound, the Inhibitory zone diameter ([4]; treatment concentration 0.03%) was 11 mm, the Inhibitory zone diameter ([4]; treatment concentration 0.1%) was 12 mm and the Inhibitory zone diameter ([4]; treatment concentration 0.3%) was 16 mm. It also gave an Inhibitory zone diameter ([4]; treatment concentration 1.0%) of 18 mm, an MIC [5] of 0.10% and an Inhibitory zone diameter ([6]; treatment concentration 0.03%) of 11 mm. The Inhibitory zone diameter ([6]; treatment concentration 0.1%) was 13 mm, the Inhibitory zone diameter ([6]; treatment concentration 0.3%) was 17 mm and the Inhibitory zone diameter ([6]; treatment concentration 1.0%) was 20 mm. For the same compound, the Inhibitory zone diameter ([7]; treatment concentration 0.01%) was 11 mm, the Inhibitory zone diameter ([7]; treatment concentration 0.03%) was 13 mm and the Inhibitory zone diameter ([7]; treatment concentration 0.1%) was 14 mm. For the same compound, the Inhibitory zone diameter ([7]; treatment concentration 0.3%) was 18 mm, the Inhibitory zone diameter ([7]; treatment concentration 1.0%) was 19 mm and the Inhibitory zone diameter ([8]; treatment concentration 0.03%) was 11.5 mm. It also gave an Inhibitory zone diameter ([8]; treatment concentration 0.1%) of 13 mm, an Inhibitory zone diameter ([8]; treatment concentration 0.3%) of 17 mm and an Inhibitory zone diameter ([8]; treatment concentration 1.0%) of 19 mm. The MIC [9] was 0.03%, the Inhibitory zone diameter ([10]; treatment concentration 0.01%) was 10.5 mm and the Inhibitory zone diameter ([10]; treatment concentration 0.03%) was 12 mm. It also gave an Inhibitory zone diameter ([10]; treatment concentration 0.1%) of 14 mm, an Inhibitory zone diameter ([10]; treatment concentration 0.3%) of 16 mm and an Inhibitory zone diameter ([10]; treatment concentration 1.0%) of 18 mm. It also gave an MIC [11] of 0.008%, an Inhibitory zone diameter ([12]; treatment concentration 0.01%) of 10.5 mm and an Inhibitory zone diameter ([12]; treatment concentration 0.03%) of 11.5 mm. The Inhibitory zone diameter ([12]; treatment concentration 0.1%) was 13 mm, the Inhibitory zone diameter ([12]; treatment concentration 0.3%) was 16 mm and the Inhibitory zone diameter ([12]; treatment concentration 1.0%) was 20 mm. The MIC [13] was 0.11%, the MIC [14] was 0.01% and the Antibacterial effects [15] was “high antibacterial effects”. It also gave an Inhibitory zone diameter ([16]; treatment concentration 0.01%) of 11.5 mm, an Inhibitory zone diameter ([16]; treatment concentration 0.03%) of 13 mm and an Inhibitory zone diameter ([16]; treatment concentration 0.1%) of 15 mm. It also gave an Inhibitory zone diameter ([16]; treatment concentration 0.3%) of 16 mm, an Inhibitory zone diameter ([16]; treatment concentration 1.0%) of 18 mm and an MIC [17] of 0.01%. It also gave an Inhibitory zone diameter ([18]; treatment concentration 0.03%) of 11 mm, an Inhibitory zone diameter ([18]; treatment concentration 0.1%) of 11 mm and an Inhibitory zone diameter ([18]; treatment concentration 0.3%) of 15 mm. It also gave an Inhibitory zone diameter ([18]; treatment concentration 1.0%) of 18 mm, an MIC [19] of 0.03% and an MIC [20] of 0.01%. It also gave an Inhibitory zone diameter ([21]; treatment concentration 0.03%) of 11 mm, an Inhibitory zone diameter ([21]; treatment concentration 0.1%) of 13 mm and an Inhibitory zone diameter ([21]; treatment concentration 0.3%) of 14 mm. It also gave an Inhibitory zone diameter ([21]; treatment concentration 1.0%) of 16 mm, an Inhibitory zone diameter ([22]; treatment concentration 0.1%) of 12 mm and an Inhibitory zone diameter ([22]; treatment concentration 0.3%) of 15 mm. For the same compound, the Inhibitory zone diameter ([22]; treatment concentration 1.0%) was 18 mm, the Inhibitory zone diameter ([23]; treatment concentration 0.03%) was 11 mm and the Inhibitory zone diameter ([23]; treatment concentration 0.1%) was 13 mm. The Inhibitory zone diameter ([23]; treatment concentration 0.3%) was 15 mm, the Inhibitory zone diameter ([23]; treatment concentration 1.0%) was 17 mm and the MIC [24] was 0.03%. The MIC [25] was 0.04%, the MIC [26] was 0.08% and the Inhibitory zone diameter ([27]; treatment concentration 0.1%) was 10.5 mm. It also gave an Inhibitory zone diameter ([27]; treatment concentration 0.3%) of 11 mm, an Inhibitory zone diameter ([27]; treatment concentration 1.0%) of 12 mm and an Inhibitory zone diameter ([28]; treatment concentration 0.03%) of 11 mm. It also gave an Inhibitory zone diameter ([28]; treatment concentration 0.1%) of 12 mm, an Inhibitory zone diameter ([28]; treatment concentration 0.3%) of 17 mm and an Inhibitory zone diameter ([28]; treatment concentration 1.0%) of 19 mm.
